In patent US11702422B2, “Imidazopyridazines as modulators of IL-17” (Janssen Pharmaceutica NV, priority 2020, dated 2023):

Experiments:
[1] = target: IL-17A(FLAG-Tagged): IL-17RA(His-Tagged) (Homo sapiens, UniProt Q16552, K93Q); test: IL-17A(FLAG-Tagged): IL-17RA(His-Tagged) Binding Disruption Eu-HTRF Assay; settings: IL-17A/IL-17RA binding disruption, simple average if tested more than once
Procedure, shortened: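 IC50 comes from a one-site competition fit of the HTRF 665/620 nm ratio. Compound dilutions (2-fold, 22 points) were held 1 h rt with FLAG-tagged IL-17A dimer, then His-tagged IL-17RA plus Eu-cryptate anti-FLAG and D2 anti-His antibodies were added for 2 h rt.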

[2] = tested on: IL-17A-induced G-CSF production in human normal keratinocyte (NHK); test: NHK Assay: IL-17A-induced G-CSF production in human normal keratinocytes; assay type: cell-based; settings: Homo sapiens, Keratinocyte, 24 h, adult normal human keratinocytes, IL-17A 5 ng/mL, simple average if tested more than once
Procedure, shortened: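 Adult NHK, 3000-4000 cells/well; rhIL-17A + titrated cpd preincubated 1 h rt, then onto cells. Final: IL-17A 5 ng/mL, DMSO 0.2%, 5% FBS. 24 h, 37° C. G-CSF in supernatant by HTRF vs standard curve; IC50. Viability by CellTiter-Glo vs DMSO.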

patients with PsA = settings: PsA with inadequate response to conventional synthetic disease-modifying antirheumatic drug; cited from earlier work
[3] = tested on: SCIDhu model of human myeloma; settings: weekly for 4 weeks after first detection of tumor, compared to isotype control mice; cited from earlier work
[4] = tested on: patients with moderate-to-severe HS; settings: seven of nine patients, open-label pilot-trial; cited from earlier work
patients with active PsA = settings: compared with anti-TNFα antibodies; cited from earlier work

Chain of UniProt Q16552 (Q16552 with tags, fused parts or gaps K93Q): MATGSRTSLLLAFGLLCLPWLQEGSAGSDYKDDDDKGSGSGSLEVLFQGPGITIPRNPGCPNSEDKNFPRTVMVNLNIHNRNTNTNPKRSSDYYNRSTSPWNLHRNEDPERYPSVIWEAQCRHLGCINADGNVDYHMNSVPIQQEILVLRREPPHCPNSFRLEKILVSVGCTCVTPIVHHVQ

CC(F)(F)CCn1ncnc1C(=O)N[C@H](c1cn2ncc([C@H](NC(=O)CCC(F)(F)F)C3CC3)cc2n1)C1CCC(F)(F)CC1 [Example 476, N—((S)-(7-((R)-Cyclopropyl(4,4,4-trifluorobutanamido)methyl)imidazo[1,2-b]pyridazin-2-yl)(4,4-difluorocyclohexyl)methyl)-1-(3,3-difluorobutyl)-1H-1,2,4-triazole-5-carboxamide]
IC50 [1]: 130 nM
IC50 [2]: 390 nM

CC(F)(F)Cn1ncnc1C(=O)N[C@H](c1cn2ncc([C@H](NC(=O)CCC(F)(F)F)C3CC3)cc2n1)C1CCC(F)(F)CC1 [Example 477, N—((S)-(7-((R)-Cyclopropyl(4,4,4-trifluorobutanamido)methyl)imidazo[1,2-b]pyridazin-2-yl)(4,4-difluorocyclohexyl)methyl)-1-(2,2-difluoropropyl)-1H-1,2,4-triazole-5-carboxamide]
IC50 [1]: 290 nM
IC50 [2]: 1400 nM

C[C@@H](n1ncnc1C(=O)N[C@H](c1cn2ncc([C@H](NC(=O)CCC(F)(F)F)C3CC3)cc2n1)C1CCC(F)(F)CC1)C(F)(F)F [Example 478, N—((S)-(7-((R)-Cyclopropyl(4,4,4-trifluorobutanamido)methyl)imidazo[1,2-b]pyridazin-2-yl)(4,4-difluorocyclohexyl)methyl)-1-((R)-1,1,1-trifluoropropan-2-yl)-1H-1,2,4-triazole-5-carboxamide]
IC50 [1]: 450 nM
IC50 [2]: 850 nM

CC(C(F)F)n1ncnc1C(=O)N[C@H](c1cn2ncc([C@H](NC(=O)CCC(F)(F)F)C3CC3)cc2n1)C1CCC(F)(F)CC1 (stereo partly drawn) [Example 479, N—((S)-(7-((R)-Cyclopropyl(4,4,4-trifluorobutanamido)methyl)imidazo[1,2-b]pyridazin-2-yl)(4,4-difluorocyclohexyl)methyl)-1-(1,1-difluoropropan-2-yl)-1H-1,2,4-triazole-5-carboxamide]
IC50 [1]: 190 nM
IC50 [2]: 430 nM

CC(C)c1scnc1C(=O)N[C@H](c1cn2ncc([C@H](NC(=O)CCC(F)(F)F)C3CC3)cc2n1)C1CCC(F)(F)CC1 [Example 480, N—((S)-(7-((R)-Cyclopropyl(4,4,4-trifluorobutanamido)methyl)imidazo[1,2-b]pyridazin-2-yl)(4,4-difluorocyclohexyl)methyl)-5-isopropylthiazole-4-carboxamide]
IC50 [1]: 140 nM
IC50 [2]: 470 nM

CC(C)n1ncnc1C(=O)N[C@H](c1cn2ncc([C@H](NC(=O)CCC(F)(F)F)C3CC3)cc2n1)C1CCC(F)(F)CC1 [Example 483, N—[(S)-[7-[(R)-Cyclopropyl-(4,4,4-trifluorobutanamido)methyl]imidazo[1,2-b]pyridazin-2-yl]-(4,4-difluorocyclohexyl)methyl]-2-isopropyl-1,2,4-triazole-3-carboxamide]
IC50 [1]: 75 nM
IC50 [2]: 380 nM

CC(C)n1nnc(C(=O)N[C@H](c2cn3ncc([C@H](NC(=O)CCC(F)(F)F)C4CC4)cc3n2)C2CCC(F)(F)CC2)n1 [Example 484, N—[(S)-[7-[(R)-Cyclopropyl-(4,4,4-trifluorobutanamido)methyl]imidazo[1,2-b]pyridazin-2-yl]-(4,4-difluorocyclohexyl)methyl]-2-isopropyl-tetrazole-5-carboxamide]
IC50 [1]: 550 nM
IC50 [2]: 4600 nM

O=C(CCC(F)(F)F)N[C@@H](c1cnn2cc([C@@H](NC(=O)c3cnn(CCN4CC(F)(F)C4)n3)C3CCC(F)(F)CC3)nc2c1)C1CC1 [Example 485, N—[(S)-[7-[(R)-Cyclopropyl-(4,4,4-trifluorobutanamido)methyl]imidazo[1,2-b]pyridazin-2-yl]-(4,4-difluorocyclohexyl)methyl]-2-[2-(3,3-difluoroazetidin-1-yl)ethyl]triazole-4-carboxamide]
IC50 [1]: 920 nM
IC50 [2]: 310 nM

O=C(CCC(F)(F)F)N[C@@H](c1cnn2cc([C@@H](NC(=O)c3cnn(CCNCC(F)(F)CCl)n3)C3CCC(F)(F)CC3)nc2c1)C1CC1 [Example 486, 2-[2-[(3-Chloro-2,2-difluoro-propyl)amino]ethyl]-N—[(S)-[7-[(R)-cyclopropyl-(4,4,4-trifluorobutanamido)methyl]imidazo[1,2-b]pyridazin-2-yl]-(4,4-difluorocyclohexyl)methyl]triazole-4-carboxamide]
IC50 [1]: 300 nM
IC50 [2]: 1100 nM

N#CC1([C@@H](NC(=O)CC2CC(F)(F)C2)c2cnn3cc([C@@H](NC(=O)c4nonc4C4CC4)C4CCC(F)(F)CC4)nc3c2)CCC1 [Example 487, N—((S)-(7-((S)-(1-Cyanocyclobutyl)(2-(3,3-difluorocyclobutyl)acetamido)methyl)imidazo[1,2-b]pyridazin-2-yl)(4,4-difluorocyclohexyl)methyl)-4-cyclopropyl-1,2,5-oxadiazole-3-carboxamide]
IC50 [1]: 45 nM
IC50 [2]: 6 nM

[2H]C([2H])([2H])n1nccc1C(=O)N[C@H](c1cn2ncc([C@H](NC(=O)CCC(F)(F)F)C3CC3)cc2n1)C1CCC(F)(F)CC1 [Example 488, N—((S)-(7-((R)-Cyclopropyl(4,4,4-trifluorobutanamido)methyl)imidazo[1,2-b]pyridazin-2-yl)(4,4-difluorocyclohexyl)methyl)-1-(methyl-d3)-1H-pyrazole-5-carboxamide]
IC50 [1]: 95 nM
IC50 [2]: 220 nM

[2H]C([2H])([2H])n1nccc1C(=O)N[C@H](c1cn2ncc([C@H](NC(=O)CC3CC(F)(F)C3)C3CC3)cc2n1)C1CCC(F)(F)CC1 [Example 489, N—((S)-(7-((R)-Cyclopropyl(2-(3,3-difluorocyclobutyl)acetamido)methyl)imidazo[1,2-b]pyridazin-2-yl)(4,4-difluorocyclohexyl)methyl)-1-(methyl-d3)-1H-pyrazole-5-carboxamide]
IC50 [1]: 54 nM
IC50 [2]: 140 nM

CC(C)(OC[C@H](NC(=O)c1nonc1C1CC1)c1cn2ncc([C@H](NC(=O)CC3CC(F)(F)C3)C3CCOCC3)cc2n1)C(F)(F)F [Example 540, 4-Cyclopropyl-N—((R)-1-(7-((R)-(2-(3,3-difluorocyclobutyl)acetamido)(tetrahydro-2H-pyran-4-yl)methyl)imidazo[1,2-b]pyridazin-2-yl)-2-((1,1,1-trifluoro-2-methylpropan-2-yl)oxy)ethyl)-1,2,5-oxadiazole-3-carboxamide]
IC50 [1]: 14 nM
IC50 [2]: 9.6 nM

CC(C)n1nccc1C(=O)N[C@@H](COC(C)(C)C(F)(F)F)c1cn2ncc([C@H](NC(=O)CC3CC(F)(F)C3)C3CCOCC3)cc2n1 [Example 541, N—((R)-1-(7-((R)-(2-(3,3-Difluorocyclobutyl)acetamido)(tetrahydro-2H-pyran-4-yl)methyl)imidazo[1,2-b]pyridazin-2-yl)-2-((1,1,1-trifluoro-2-methylpropan-2-yl)oxy)ethyl)-1-isopropyl-1H-pyrazole-5-carboxamide]
IC50 [1]: 130 nM
IC50 [2]: 29 nM

CC(C)(C[C@H](NC(=O)c1nonc1C1CC1)c1cn2ncc([C@H](NC(=O)CC3CC(F)(F)C3)C3CC3)cc2n1)C(F)(F)F [Example 542, 4-Cyclopropyl-N—((S)-1-(7-((R)-cyclopropyl(2-(3,3-difluorocyclobutyl)acetamido)methyl)imidazo[1,2-b]pyridazin-2-yl)-4,4,4-trifluoro-3,3-dimethylbutyl)-1,2,5-oxadiazole-3-carboxamide]
IC50 [1]: 52 nM
IC50 [2]: 46 nM

CC(C)n1nccc1C(=O)N[C@@H](CC(C)(C)C(F)(F)F)c1cn2ncc([C@H](NC(=O)CC3CC(F)(F)C3)C3CC3)cc2n1 [Example 543, N—((S)-1-(7-((R)-Cyclopropyl(2-(3,3-difluorocyclobutyl)acetamido)methyl)imidazo[1,2-b]pyridazin-2-yl)-4,4,4-trifluoro-3,3-dimethylbutyl)-1-isopropyl-1H-pyrazole-5-carboxamide]
IC50 [1]: 180 nM
IC50 [2]: 72 nM

Cc1nonc1C(=O)N[C@@H](CC(C)(C)C(F)(F)F)c1cn2ncc([C@H](NC(=O)CC3CC(F)(F)C3)C3CC3)cc2n1 [Example 544, N—((S)-1-(7-((R)-Cyclopropyl(2-(3,3-difluorocyclobutyl)acetamido)methyl)imidazo[1,2-b]pyridazin-2-yl)-4,4,4-trifluoro-3,3-dimethylbutyl)-4-methyl-1,2,5-oxadiazole-3-carboxamide]
IC50 [1]: 120 nM
IC50 [2]: 240 nM

[2H]C([2H])([2H])C([2H])([2H])n1nccc1C(=O)N[C@@H](CC(C)(C)C(F)(F)F)c1cn2ncc([C@H](NC(=O)CC3CC(F)(F)C3)C3CC3)cc2n1 [Example 545, N—((S)-1-(7-((R)-Cyclopropyl(2-(3,3-difluorocyclobutyl)acetamido)methyl)imidazo[1,2-b]pyridazin-2-yl)-4,4,4-trifluoro-3,3-dimethylbutyl)-1-(ethyl-d5)-1H-pyrazole-5-carboxamide]
IC50 [1]: 170 nM
IC50 [2]: 150 nM

ixekizumab
simultaneous improvement of joint and skin disease (ACR50 and PASI100) (patients with PsA): superior to adalimumab

secukinumab
bone damage [3]: reduced bone damage
tumor growth [3]: significant inhibition of tumor growth
patients achieving HiSCR [4]: 78%
ACR 20/50/70 response rates (patients with active PsA): higher ACR 20/50/70 response rates
